Patent publication US7138361B2, “Herbicidal heterocycles” (E. I. du Pont de Nemours and Company, priority 2000, dated 2006)

What was measured:
Assay type in all cases: in vivo
[1] = system: blackgrass (Alopecurus myosuroides); assay: Test B postemergence; conditions: 13 to 15 days
Summary of the method: (§1)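 Ratings on a 0 to 100 visual scale (100 complete control) compare treated plants with controls 13 to 15 days after application. Treatments were pre- or postemergence sprays of compound in non-phytotoxic solvent with surfactant.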

[2] = system: cocklebur (Xanthium strumarium); assay: Test B postemergence; conditions: 13 to 15 days
Summary of the method: as §1

[3] = system: giant foxtail (Setaria faberii); assay: Test B postemergence; conditions: 13 to 15 days
Summary of the method: as §1

[4] = system: velvetleaf (Abutilon theophrasti); assay: Test B postemergence; conditions: 13 to 15 days
Summary of the method: as §1

[5] = system: wheat (Triticum aestivum); assay: Test B postemergence; conditions: 13 to 15 days
Summary of the method: as §1

[6] = system: corn (Zea mays); assay: Test B postemergence; conditions: 13 to 15 days
Summary of the method: as §1

[7] = system: crabgrass (Digitaria sanguinalis); assay: Test B postemergence; conditions: 13 to 15 days
Summary of the method: as §1

[8] = system: morning glory (Ipomoea hederacea); assay: Test B postemergence; conditions: 13 to 15 days
Summary of the method: as §1

[9] = system: Surinam grass (Brachiaria decumbens); assay: Test B postemergence; conditions: 13 to 15 days
Summary of the method: as §1

[10] = system: pigweed (Amaranthus retroflexus); assay: Test B postemergence; conditions: 13 to 15 days
Summary of the method: as §1

[11] = system: barnyardgrass (Echinochloa crus-galli); assay: Test B postemergence; conditions: 13 to 15 days
Summary of the method: as §1

[12] = system: lambsquarters (Chenopodium album); assay: Test B postemergence; conditions: 13 to 15 days
Summary of the method: as §1

[13] = system: wild oat (Avena fatua); assay: Test B postemergence; conditions: 13 to 15 days
Summary of the method: as §1

[14] = system: cocklebur (Xanthium strumarium); assay: Test B preemergence
Summary of the method: as §1

[15] = system: rice (Oryza saliva); assay: Test B preemergence
Summary of the method: as §1

[16] = system: giant foxtail (Setaria faberii); assay: Test B preemergence
Summary of the method: as §1

[17] = system: velvetleaf (Abutilon theophrasti); assay: Test B preemergence; conditions: Preemergence, Rate 500 g/ha; scale 0 to 100, 0 no effect, 100 complete control
Summary of the method: as §1

[18] = system: corn (Zea mays); assay: Test B preemergence
Summary of the method: as §1

[19] = system: crabgrass (Digitaria sanguinalis); assay: Test B preemergence
Summary of the method: as §1

[20] = system: morning glory (Ipomoea hederacea); assay: Test B preemergence
Summary of the method: as §1

[21] = system: Surinam grass (Brachiaria decumbens); assay: Test B preemergence
Summary of the method: as §1

[22] = system: pigweed (Amaranthus retroflexus); assay: Test B preemergence
Summary of the method: as §1

[23] = system: barnyardgrass (Echinochloa crus-galli); assay: Test B preemergence
Summary of the method: as §1

[24] = system: lambsquarters (Chenopodium album); assay: Test B preemergence
Summary of the method: as §1

[25] = system: smallflower flatsedge (Cyperus difformis); assay: Test B flooded paddy test; conditions: Rate 1000 g/ha, scale of 0 to 100 where 0 is no effect and 100 is complete control, visually evaluated after 13 to 15 days
Summary of the method: (§2)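 Treatment: formulated chemical applied to flooded paddy plants at 2-leaf stage. Hold: greenhouse, 13–15 days. Scoring: visual comparison to controls, 0 (no effect) to 100 (complete control).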

[26] = system: rice (Oryza saliva); assay: Test B flooded paddy test; conditions: Rate 1000 g/ha, scale of 0 to 100 where 0 is no effect and 100 is complete control, visually evaluated after 13 to 15 days
Summary of the method: as §2

[27] = system: duck salad (Heteranthera limosa); assay: Test B flooded paddy test; conditions: Rate 1000 g/ha, scale of 0 to 100 where 0 is no effect and 100 is complete control, visually evaluated after 13 to 15 days
Summary of the method: as §2

[28] = system: barnyardgrass (Echinochloa crus-galli); assay: Test B flooded paddy test; conditions: Rate 1000 g/ha, scale of 0 to 100 where 0 is no effect and 100 is complete control, visually evaluated after 13 to 15 days
Summary of the method: as §2

[29] = system: smallflower flatsedge (Cyperus difformis); assay: Test C flooded paddy test; conditions: for Flatsedge plant response rating: Flooded Paddy, scale 0 to 100, 0 no effect, 100 complete control; for Plant response rating, Flatsedge: flooded paddy test, scale 0 to 100 (0 no effect, 100 complete control)
Summary of the method: (§3)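 Greenhouse-maintained for 12 to 14 days after treatment, the paddy plants (2-leaf stage at application) were scored visually against controls. A score of 0 denotes no effect and a score of 100 denotes complete control.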

[30] = system: rice (Oryza saliva); assay: Test C flooded paddy test; conditions: for Rice plant response rating: scale 0 to 100, 0 no effect, 100 complete control
Summary of the method: as §3

[31] = system: duck salad (Heteranthera limosa); assay: Test C flooded paddy test; conditions: for Ducksalad plant response rating: scale 0 to 100, 0 no effect, 100 complete control
Summary of the method: as §3

[32] = system: barnyardgrass (Echinochloa crus-galli); assay: Test C flooded paddy test; conditions: for Barnyardgrass plant response rating: scale 0 to 100, 0 no effect, 100 complete control
Summary of the method: as §3

[33] = Rate 125 g/ha, scale 0 (no effect) to 100 (complete control)
[34] = Rate 500 g/ha, scale 0 to 100, 0 is no effect, 100 is complete control
[35] = Preemergence, Rate 500 g/ha, scale 0 to 100, 0 no effect, 100 complete control
[36] = preemergence, Rate 125 g/ha, scale 0 to 100, 0 no effect, 100 complete control
[37] = Flooded Paddy, Rate 500 g/ha, scale 0 to 100
[38] = flooded paddy test, Rate 62 g/ha, scale 0 to 100 (0 no effect, 100 complete control)
[39] = flooded paddy test, Rate 125 g/ha, scale 0 to 100 (0 no effect, 100 complete control)
[40] = preemergence, Rate 125 g/ha, scale of 0 to 100 where 0 is no effect and 100 is complete control, 13 to 15 days

## Cc1cn(C2CCN(c3cccc(C(F)(F)F)c3)C2=O)nc1C(C)C (centres unmarked) [Compound 17]
[1]; [33]
  Plant response rating, Blackgrass: 0
[1]; [34]
  Plant response rating, Blackgrass: 0
[2]; [33]
  Plant response rating, Cocklebur: 0
[2]; [34]
  Plant response rating, Cocklebur: 0
[3]; [33]
  Plant response rating, Foxtail, Giant: 0
[3]; [34]
  Plant response rating, Foxtail, Giant: 0
[4]; [33]
  Plant response rating, Velvetleaf: 0
[4]; [34]
  Plant response rating, Velvetleaf: 0
[5]; [33]
  Plant response rating, Wheat: 0
[5]; [34]
  Plant response rating, Wheat: 0
[6]; [33]
  Plant response rating, Corn: 0
[6]; [34]
  Plant response rating, Corn: 0
[7]; [33]
  Plant response rating, Crabgrass: 0
[7]; [34]
  Plant response rating, Crabgrass: 0
[8]; [33]
  Plant response rating, Morningglory: 0
[8]; [34]
  Plant response rating, Morningglory: 0
[9]; [33]
  Plant response rating, Surinam grass: 0
[9]; [34]
  Plant response rating, Surinam grass: 0
[10]; [33]
  Plant response rating, Pigweed: 0
[10]; [34]
  Plant response rating, Pigweed: 0
[11]; [33]
  Plant response rating, Barnyardgrass: 0
[11]; [34]
  Plant response rating, Barnyardgrass: 0
[12]; [33]
  Plant response rating, Lambsquarters: 80
[12]; [34]
  Plant response rating, Lambsquarters: 80
[13]; [33]
  Plant response rating, Wild Oat: 0
[13]; [34]
  Plant response rating, Wild Oat: 0
[14]; [35]
  Plant response rating, Cocklebur: 0
[15]; [35]
  Plant response rating, Rice: 0
[15]; [36]
  Plant response rating, Rice: 0
[16]; [35]
  Plant response rating, Foxtail, Giant: 0
[16]; [36]
  Plant response rating, Foxtail, Giant: 0
[17]
  Plant response rating, Velvetleaf: 0
[18]; [35]
  Plant response rating, Corn: 0
[18]; [36]
  Plant response rating, Corn: 0
[19]; [35]
  Plant response rating, Crabgrass: 0
[19]; [36]
  Plant response rating, Crabgrass: 0
[20]; [35]
  Plant response rating, Morningglory: 0
[21]; [35]
  Plant response rating, Surinam grass: 0
[21]; [36]
  Plant response rating, Surinam grass: 0
[22]; [35]
  Plant response rating, Pigweed: 0
[22]; [36]
  Plant response rating, Pigweed: 0
[23]; [35]
  Plant response rating, Barnyardgrass: 0
[23]; [36]
  Plant response rating, Barnyardgrass: 0
[24]; [35]
  Plant response rating, Lambsquarters: 0
[25]
  Plant response rating, Flatsedge: 90
[26]
  Plant response rating, Rice: 40
[27]
  Plant response rating, Ducksalad: 60
[28]
  Plant response rating, Barnyardgrass: 80
[29]; Rate 250 g/ha
  Flatsedge plant response rating: 80
[29]; Rate 500 g/ha
  Flatsedge plant response rating: 80
[29]; Rate 62 g/ha
  Plant response rating, Flatsedge: 20
[29]; Rate 125 g/ha
  Plant response rating, Flatsedge: 70
[30]; [37]
  Plant response rating, Rice: 0
[30]; Flooded Paddy, Rate 250 g/ha
  Rice plant response rating: 0
[30]; [38]
  Plant response rating, Rice: 0
[30]; [39]
  Plant response rating, Rice: 0
[31]; [37]
  Plant response rating, Ducksalad: 80
[31]; Flooded Paddy, Rate 250 g/ha
  Ducksalad plant response rating: 80
[31]; [38]
  Plant response rating, Ducksalad: 30
[31]; [39]
  Plant response rating, Ducksalad: 70
[32]; [37]
  Plant response rating, Barnyardgrass: 70
[32]; Flooded Paddy, Rate 250 g/ha
  Barnyardgrass plant response rating: 0
[32]; [38]
  Plant response rating, Barnyardgrass: 0
[32]; [39]
  Plant response rating, Barnyardgrass: 0

## CCC(C)Oc1ccn(C2CCN(c3cccc(C(F)(F)F)c3)C2=O)n1 (centres unmarked) [Compound 58]
[1]; [33]
  Plant response rating, Blackgrass: 0
[1]; [34]
  Plant response rating, Blackgrass: 0
[2]; [33]
  Plant response rating, Cocklebur: 0
[2]; [34]
  Plant response rating, Cocklebur: 0
[3]; [33]
  Plant response rating, Foxtail, Giant: 0
[3]; [34]
  Plant response rating, Foxtail, Giant: 0
[4]; [33]
  Plant response rating, Velvetleaf: 0
[4]; [34]
  Plant response rating, Velvetleaf: 0
[5]; [33]
  Plant response rating, Wheat: 0
[5]; [34]
  Plant response rating, Wheat: 0
[6]; [33]
  Plant response rating, Corn: 0
[6]; [34]
  Plant response rating, Corn: 0
[7]; [33]
  Plant response rating, Crabgrass: 0
[7]; [34]
  Plant response rating, Crabgrass: 0
[8]; [33]
  Plant response rating, Morningglory: 0
[8]; [34]
  Plant response rating, Morningglory: 0
[9]; [33]
  Plant response rating, Surinam grass: 0
[9]; [34]
  Plant response rating, Surinam grass: 0
[10]; [33]
  Plant response rating, Pigweed: 0
[10]; [34]
  Plant response rating, Pigweed: 0
[11]; [33]
  Plant response rating, Barnyardgrass: 0
[11]; [34]
  Plant response rating, Barnyardgrass: 0
[12]; [33]
  Plant response rating, Lambsquarters: 0
[12]; [34]
  Plant response rating, Lambsquarters: 0
[13]; [33]
  Plant response rating, Wild Oat: 0
[13]; [34]
  Plant response rating, Wild Oat: 0
[14]; [35]
  Plant response rating, Cocklebur: 0
[14]; [40]
  Plant response rating, Cocklebur: 0
[15]; [35]
  Plant response rating, Rice: 0
[15]; [40]
  Plant response rating, Rice: 0
[16]; [35]
  Plant response rating, Foxtail, Giant: 70
[16]; [40]
  Plant response rating, Foxtail, Giant: 0
[17]
  Plant response rating, Velvetleaf: 0
[18]; [35]
  Plant response rating, Corn: 0
[18]; [40]
  Plant response rating, Corn: 0
[19]; [35]
  Plant response rating, Crabgrass: 80
[19]; [40]
  Plant response rating, Crabgrass: 0
[20]; [35]
  Plant response rating, Morningglory: 0
[20]; [40]
  Plant response rating, Morningglory: 0
[21]; [35]
  Plant response rating, Surinam grass: 0
[21]; [40]
  Plant response rating, Surinam grass: 0
[22]; [35]
  Plant response rating, Pigweed: 0
[22]; [40]
  Plant response rating, Pigweed: 0
[23]; [35]
  Plant response rating, Barnyardgrass: 70
[23]; [40]
  Plant response rating, Barnyardgrass: 0
[24]; [35]
  Plant response rating, Lambsquarters: 0
[24]; [40]
  Plant response rating, Lambsquarters: 0
[25]
  Plant response rating, Flatsedge: 80
[26]
  Plant response rating, Rice: 20
[27]
  Plant response rating, Ducksalad: 70
[28]
  Plant response rating, Barnyardgrass: 90
[29]; Rate 250 g/ha
  Flatsedge plant response rating: 0
[29]; Rate 500 g/ha
  Flatsedge plant response rating: 30
[29]; Rate 62 g/ha
  Plant response rating, Flatsedge: 0
[29]; Rate 125 g/ha
  Plant response rating, Flatsedge: 0
[30]; Flooded Paddy, Rate 250 g/ha
  Rice plant response rating: 0
[30]; Flooded Paddy, Rate 500 g/ha
  Rice plant response rating: 0
[30]; [38]
  Plant response rating, Rice: 0
[30]; [39]
  Plant response rating, Rice: 0
[31]; Flooded Paddy, Rate 250 g/ha
  Ducksalad plant response rating: 0
[31]; Flooded Paddy, Rate 500 g/ha
  Ducksalad plant response rating: 0
[31]; [38]
  Plant response rating, Ducksalad: 0
[31]; [39]
  Plant response rating, Ducksalad: 0
[32]; Flooded Paddy, Rate 250 g/ha
  Barnyardgrass plant response rating: 0
[32]; Flooded Paddy, Rate 500 g/ha
  Barnyardgrass plant response rating: 20
[32]; [38]
  Plant response rating, Barnyardgrass: 0
[32]; [39]
  Plant response rating, Barnyardgrass: 0
